The results in this text go back to ChEMBL document CHEMBL1287786, “Synthesis, antimicrobial and antioxidant evaluation of quinolines and bis(indolyl)methanes” (2010).

Common to all, as to format: functional
The subject of one experiment is Candida albicans. Nature of the experiment: Antifungal activity against Candida albicans ATCC 10231 at 1000 ug/ml after 24 hrs by cup plate method. Conditions: ATCC 10231, 24 h, read-out: IZ.
In a further experiment the test system is Staphylococcus aureus. Nature of the experiment: Antibacterial activity against Staphylococcus aureus ATCC 25923 at 1000 ug/ml after 24 hrs by cup plate method. Conditions: ATCC 25923, 24 h, read-out: IZ.
For a further experiment, the system named is Escherichia coli. Description: Antibacterial activity against Escherichia coli ATCC 25922 at 1000 ug/ml after 24 hrs by cup plate method. Conditions: ATCC 25922, 24 h, read-out: IZ.
Experiment [1] has as its system Radical scavenging activity. Description: Antioxidant activity assessed as DPPH radical scavenging activity at 50 ug by spectrophotometry relative to control.
The nature of experiment [2]: Antioxidant activity assessed as hydrogen peroxide radical scavenging activity by spectrophotometry relative to control. More on the design: concentration or dose not given beside the values.
In experiment [3] the test system is Radical scavenging activity. Nature of the experiment: Antioxidant activity assessed as DPPH radical scavenging activity at 1000 ug by spectrophotometry relative to control. For orientation: DPPH is a stable violet radical that fades when it is reduced.
Experiment [4] in a line: Antioxidant activity assessed as hydrogen peroxide radical scavenging activity after 30 mins by spectrophotometry relative to control. More on the design: concentration or dose not given beside the values.
Experiment [5] in a line: Antioxidant activity assessed as hydrogen peroxide radical scavenging activity after 20 mins by spectrophotometry relative to control. More on the design: concentration or dose not given beside the values.
Experiment [6] can be described thus: Antioxidant activity assessed as hydrogen peroxide radical scavenging activity after 10 mins by spectrophotometry relative to control. Also noted: concentration or dose not given beside the values.
The test system of experiment [7] is Radical scavenging activity. Nature of the experiment: Antioxidant activity assessed as DPPH radical scavenging activity at 500 ug by spectrophotometry relative to control.
The nature of experiment [8]: Antioxidant activity assessed as hydrogen peroxide radical scavenging activity after 40 mins by spectrophotometry relative to control. Also noted: concentration or dose not given beside the values.

Structures are written as SMILES.

With `Cc1ccc(-c2cc(-c3ccccc3)c3ccccc3n2)cc1`, the zone of inhibition at 1000 µg/mL in the experiment on Candida albicans stood at 19 mm; in the experiment with Staphylococcus aureus, 24 mm; in the experiment with Escherichia coli it was 17 mm.

Regarding `Brc1cc2c(cc1C(c1c(-c3ccccc3)[nH]c3ccccc13)c1c(-c3ccccc3)[nH]c3ccccc13)OCO2`, the values for the zone of inhibition at 1000 µg/mL in the experiment on Candida albicans, with Staphylococcus aureus and in the experiment on Escherichia coli were 24 mm, 25 mm and 23 mm, respectively. Also, the Activity amounted to 10% in experiment [1]; 57% in experiment [2]; 42% in experiment [3]; 30% in [4]; 39% in experiment [5]; 43% in experiment [6]. Besides, the figures for the Activity in experiment [7] and in experiment [8] were 23% and 21%, respectively.

`O=C(O)c1ccc(C(c2c(-c3ccccc3)[nH]c3ccccc23)c2c(-c3ccccc3)[nH]c3ccccc23)cc1`: the zone of inhibition at 1000 µg/mL came to 16 mm in the experiment with Candida albicans, 24 mm in the experiment on Staphylococcus aureus and 19 mm with Escherichia coli. The Activity came out at 17% in experiment [1]; 60% in [2]; 80% in experiment [3]; 35% in experiment [4]; 45% in experiment [5]; 45% in [6]. Also, the Activity was determined as 48% in experiment [7] and 24% in experiment [8].

With `c1ccc(-c2[nH]c3ccccc3c2C(c2cccc3ccccc23)c2c(-c3ccccc3)[nH]c3ccccc23)cc1`, the zone of inhibition at 1000 µg/mL stood at 10 mm in the experiment with Candida albicans, 23 mm in the experiment on Staphylococcus aureus and 16 mm in the experiment on Escherichia coli. Further, the Activity in [1] stood at 25%; in experiment [2], 93%; in experiment [3] it was 76%; in experiment [4], 77%; in experiment [5], 82%; in experiment [6] it was 84%. Also, the Activity was 58% in [7] and 71% in [8].

`O=C1O[C@H]([C@@H](O)CO)C(O)=C1O`: the Activity in experiment [1] was determined as 96%; in experiment [3], 99%; in [7], 97%.

As for `COc1cc(Br)c(C(c2c(-c3ccccc3)[nH]c3ccccc23)c2c(-c3ccccc3)[nH]c3ccccc23)cc1OC`, the zone of inhibition at 1000 µg/mL amounted to 16 mm in the experiment on Candida albicans, 12 mm in the experiment on Staphylococcus aureus and 14 mm in the experiment with Escherichia coli. Further, the Activity in experiment [1] worked out at 21%; in experiment [2], 86%; in experiment [3] it was 69%; in [4] it was 72%; in [5], 74%; in experiment [6] it was 85%. Moreover, the Activity in experiment [7] is 52%; in [8], 69%.

For the compound `Clc1nc2ccccc2cc1C(c1c(-c2ccccc2)[nH]c2ccccc12)c1c(-c2ccccc2)[nH]c2ccccc12`, the zone of inhibition at 1000 µg/mL in the experiment with Candida albicans stood at 18 mm; with Staphylococcus aureus, 18 mm; in the experiment on Escherichia coli it was 15 mm. Further, the Activity turned out to be 2% in experiment [1]; 84% in experiment [2]; 35% in experiment [3]; 73% in experiment [4]; 80% in [5]; 83% in experiment [6]. The Activity in experiment [7] worked out at 12%; in experiment [8], 68%.

With `Cn1c(C(c2c(-c3ccccc3)[nH]c3ccccc23)c2c(-c3ccccc3)[nH]c3ccccc23)cc2ccccc21`, the zone of inhibition at 1000 µg/mL in the experiment on Candida albicans came to 14 mm; in the experiment on Staphylococcus aureus it was 13 mm; in the experiment with Escherichia coli, 16 mm. Further, the Activity in [1] came to 19%; in experiment [2] it was 43%; in experiment [3] it was 76%; in [4], 20%; in [5], 21%; in [6], 35%. For the same compound, the Activity in experiment [7] was determined as 63%; in experiment [8] it was 16%.

Turning to `Cc1cc(C(C)(C)C)c(O)c(C(C)(C)C)c1`, the Activity in experiment [2] amounted to 92%; in experiment [4], 82%; in experiment [5] it was 83%; in experiment [6], 86%; in experiment [8], 80%.

For `Clc1ccc(-c2nn(-c3ccccc3)cc2C(c2c(-c3ccccc3)[nH]c3ccccc23)c2c(-c3ccccc3)[nH]c3ccccc23)cc1`, the zone of inhibition at 1000 µg/mL came to 12 mm in the experiment on Candida albicans, 19 mm in the experiment with Staphylococcus aureus and 15 mm in the experiment with Escherichia coli. Further, the Activity in experiment [1] came to 21%; in experiment [2], 83%; in experiment [3] it was 87%; in experiment [4], 80%; in experiment [5] it was 81%; in [6], 82%. The Activity in [7] came to 65%; in experiment [8], 79%.

`COc1cc(C(c2c(-c3ccccc3)[nH]c3ccccc23)c2c(-c3ccccc3)[nH]c3ccccc23)cc(Br)c1O`: the zone of inhibition at 1000 µg/mL was 26 mm in the experiment with Candida albicans, 22 mm with Staphylococcus aureus and 24 mm in the experiment on Escherichia coli. The Activity came out at 27% in experiment [1]; 82% in [2]; 70% in experiment [3]; 71% in [4]; 74% in experiment [5]; 81% in experiment [6]. Further, the Activity in experiment [7] is 64%; in experiment [8], 65%.

Consider `Cc1cc(-c2ccccc2)nc2ccccc12`, for which the zone of inhibition at 1000 µg/mL with Candida albicans amounted to 16 mm; with Staphylococcus aureus, 14 mm; in the experiment with Escherichia coli, 20 mm.

Consider `COc1cccc(-c2cc(-c3ccccc3)c3ccccc3n2)c1`, for which the zone of inhibition at 1000 µg/mL was determined as 14 mm in the experiment with Candida albicans, 21 mm in the experiment on Staphylococcus aureus and 23 mm with Escherichia coli.

Take `Cc1ccccc1-c1cc(-c2ccccc2)c2ccccc2n1`: the zone of inhibition at 1000 µg/mL was 15 mm in the experiment on Candida albicans, 15 mm in the experiment with Staphylococcus aureus and 18 mm with Escherichia coli.

With `Clc1ccc2nc(-c3ccccc3)cc(-c3ccccc3)c2c1`, the results for the zone of inhibition at 1000 µg/mL in the experiment with Candida albicans, in the experiment on Staphylococcus aureus and with Escherichia coli were 16 mm, 21 mm and 18 mm, respectively.

Consider `CCCCc1cc(-c2ccccc2)c2ccccc2n1`, for which the zone of inhibition at 1000 µg/mL amounted to 15 mm in the experiment on Candida albicans, 20 mm in the experiment on Staphylococcus aureus and 19 mm with Escherichia coli.

For the compound `Cc1ccc2nc(-c3cccc(Br)c3)cc(-c3ccccc3)c2c1`, the zone of inhibition at 1000 µg/mL with Candida albicans amounted to 21 mm; in the experiment on Staphylococcus aureus, 24 mm; in the experiment with Escherichia coli it was 22 mm.

On to `c1ccc(-c2[nH]c3ccccc3c2C(c2ccc3c(c2)-c2ccccc2C3)c2c(-c3ccccc3)[nH]c3ccccc23)cc1`, for which the zone of inhibition at 1000 µg/mL with Candida albicans worked out at 18 mm; in the experiment with Staphylococcus aureus, 24 mm; in the experiment on Escherichia coli, 18 mm. Besides, the Activity in experiment [1] amounted to 19%; in [2] it was 88%; in [3] it was 85%; in [4] it was 73%; in experiment [5], 76%; in experiment [6] it was 85%. Also, the Activity amounted to 66% in [7] and 70% in experiment [8].

With `c1ccc(-c2ccc(C(c3c(-c4ccccc4)[nH]c4ccccc34)c3c(-c4ccccc4)[nH]c4ccccc34)cc2)cc1`, the zone of inhibition at 1000 µg/mL in the experiment on Candida albicans worked out at 25 mm; with Staphylococcus aureus, 26 mm; in the experiment on Escherichia coli, 26 mm. The Activity in [1] is 22%; in [2] it was 87%; in [3], 75%; in experiment [4], 70%; in experiment [5], 75%; in experiment [6], 83%. Further, the Activity was found to be 55% in experiment [7] and 59% in [8].

As for `Cc1ccc(-c2cc(-c3ccccc3)c3cc(Cl)ccc3n2)cc1`, the zone of inhibition at 1000 µg/mL is 23 mm in the experiment on Candida albicans, 22 mm in the experiment with Staphylococcus aureus and 22 mm in the experiment on Escherichia coli.

Turning to `C[C@@H]1[C@H](O)[C@@H](C)/C=C/C=C/C=C/C=C/C=C/C=C/C=C/[C@H](O[C@@H]2O[C@H](C)[C@@H](O)[C@H](N)[C@@H]2O)C[C@@H]2O[C@](O)(C[C@@H](O)C[C@@H](O)[C@H](O)CC[C@@H](O)C[C@@H](O)CC(=O)O[C@H]1C)C[C@H](O)[C@H]2C(=O)O` [AMPHOTERICIN B], the zone of inhibition at 1000 µg/mL in the experiment with Candida albicans was found to be 20 mm.

Regarding `CCCCCc1ccc(-c2cc(C)c3ccccc3n2)cc1`, the zone of inhibition at 1000 µg/mL with Candida albicans was found to be 18 mm; in the experiment on Staphylococcus aureus, 21 mm; with Escherichia coli, 18 mm.

As for `c1ccc(-c2cc(-c3ccccn3)nc3ccccc23)cc1`, the values for the zone of inhibition at 1000 µg/mL in the experiment with Candida albicans, with Staphylococcus aureus and in the experiment with Escherichia coli were 18 mm, 23 mm and 18 mm, respectively.

As to `c1ccc(-c2cc(-c3ccccc3)c3ccccc3n2)cc1`, the zone of inhibition at 1000 µg/mL was found to be 13 mm with Candida albicans, 18 mm in the experiment with Staphylococcus aureus and 17 mm in the experiment with Escherichia coli.

In the case of `Brc1cccc(-c2cc(-c3ccccc3)c3ccccc3n2)c1`, the zone of inhibition at 1000 µg/mL came to 10 mm in the experiment with Candida albicans, 14 mm with Staphylococcus aureus and 12 mm with Escherichia coli.
